A short description of data set [1]: (§1) Intrinsic clearance in human liver microsomes. The format is ADME. Particulars: liver microsomes, read-out: CLH.
The nature of data set [2]: Lipophilicity, log D of the compound by HPLC analysis. The format is physicochemical. Particulars: read-out: logD.
For data set [3], the target named is Voltage-gated inwardly rectifying potassium channel KCNH2 (Homo sapiens, UniProt Q12809). Briefly: Inhibition of human ERG.
For data set [4], the target named is T1, Potassium voltage-gated channel subfamily A member 5 (Homo sapiens, UniProt P22460). Kind of data set: Inhibition of human Kv1.5 channel by QPatch-clamp method.
T1 sequence (P22460 whole entry): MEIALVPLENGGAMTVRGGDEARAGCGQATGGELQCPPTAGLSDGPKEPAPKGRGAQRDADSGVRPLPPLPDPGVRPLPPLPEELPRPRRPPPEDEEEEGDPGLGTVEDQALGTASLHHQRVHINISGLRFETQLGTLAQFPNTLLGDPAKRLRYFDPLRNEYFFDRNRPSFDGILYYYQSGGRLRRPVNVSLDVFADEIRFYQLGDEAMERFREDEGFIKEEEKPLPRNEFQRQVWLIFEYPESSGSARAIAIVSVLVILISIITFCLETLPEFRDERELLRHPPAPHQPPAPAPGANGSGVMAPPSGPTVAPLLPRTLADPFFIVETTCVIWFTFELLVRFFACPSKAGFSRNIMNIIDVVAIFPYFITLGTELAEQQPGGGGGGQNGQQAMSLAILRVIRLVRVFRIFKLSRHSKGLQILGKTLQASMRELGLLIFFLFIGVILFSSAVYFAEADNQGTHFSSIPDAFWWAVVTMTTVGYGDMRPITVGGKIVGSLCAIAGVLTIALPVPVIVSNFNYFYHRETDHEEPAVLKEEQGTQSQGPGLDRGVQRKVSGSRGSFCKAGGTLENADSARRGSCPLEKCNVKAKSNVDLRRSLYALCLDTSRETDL
For data set [5], the system named is Liver microsome. The data set is described as §1. Type of data set: ADME. Particulars: microsomes.
Data set [6] deals with T1, Potassium voltage-gated channel subfamily A member 5. Kind of data set: Inhibition of human Kv1.5 channel by Rb-flux assay.
The test system of data set [7] is Mus musculus. Briefly: In vivo inhibition of Kv1.5 channel in BaLBc mouse assessed as unbound steady-state plasma concentration required to increase QT-interval by 30% at 20 umol/kg,iv for 15 mins. Type of data set: functional.

Sequence of Voltage-gated inwardly rectifying potassium channel KCNH2 (Q12809 whole entry): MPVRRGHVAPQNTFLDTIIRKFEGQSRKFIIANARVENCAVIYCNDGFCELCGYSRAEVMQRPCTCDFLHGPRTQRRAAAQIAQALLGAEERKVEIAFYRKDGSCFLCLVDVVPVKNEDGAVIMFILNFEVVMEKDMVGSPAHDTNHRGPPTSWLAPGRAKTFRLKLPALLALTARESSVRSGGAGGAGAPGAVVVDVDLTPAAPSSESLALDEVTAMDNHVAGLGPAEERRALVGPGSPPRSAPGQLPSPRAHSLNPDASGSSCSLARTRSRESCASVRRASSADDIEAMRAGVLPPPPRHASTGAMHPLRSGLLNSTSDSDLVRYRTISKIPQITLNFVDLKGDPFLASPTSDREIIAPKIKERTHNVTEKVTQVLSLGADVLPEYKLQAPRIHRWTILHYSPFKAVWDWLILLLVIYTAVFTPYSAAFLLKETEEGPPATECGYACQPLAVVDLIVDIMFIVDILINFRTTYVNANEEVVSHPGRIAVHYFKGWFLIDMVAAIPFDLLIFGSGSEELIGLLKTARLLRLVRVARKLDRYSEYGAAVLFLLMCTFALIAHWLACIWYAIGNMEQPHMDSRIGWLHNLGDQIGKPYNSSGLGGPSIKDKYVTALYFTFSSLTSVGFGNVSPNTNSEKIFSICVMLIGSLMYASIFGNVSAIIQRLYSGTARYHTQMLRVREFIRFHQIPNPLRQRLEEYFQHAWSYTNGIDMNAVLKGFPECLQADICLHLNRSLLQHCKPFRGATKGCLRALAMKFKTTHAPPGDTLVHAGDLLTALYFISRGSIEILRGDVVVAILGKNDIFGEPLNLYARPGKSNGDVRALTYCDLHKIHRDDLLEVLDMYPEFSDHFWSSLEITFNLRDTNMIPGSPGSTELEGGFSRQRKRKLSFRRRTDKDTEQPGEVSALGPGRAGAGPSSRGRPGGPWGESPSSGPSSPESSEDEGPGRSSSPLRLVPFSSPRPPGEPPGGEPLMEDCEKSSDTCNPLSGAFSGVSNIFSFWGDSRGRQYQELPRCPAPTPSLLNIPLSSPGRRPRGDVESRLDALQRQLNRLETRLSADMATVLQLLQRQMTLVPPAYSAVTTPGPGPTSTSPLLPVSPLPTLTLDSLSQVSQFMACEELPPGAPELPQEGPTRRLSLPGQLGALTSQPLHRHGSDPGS

Turning to `CC(C)(C)NC(=O)C1c2cc(C#N)ccc2C(=O)N1Cc1ccccc1-c1ccccc1` (racemic), the microsomal CLint in data set [1] was above 100 µL/min/mg. For the same compound, the logD in data set [2] came out at 4.7. Moreover, the IC50 in data set [3] was above 33 µM; in data set [4], 3.3 µM.

`Cc1c(O)ccc2c1C(=O)N(Cc1ccccc1-c1ccccc1)C2C(=O)NC(C)(C)C` (single isomer, unassigned; enantiomer 2): in data set [5], the CLH turned out to be 24 µL/min/mg. Also, the half-maximal inhibitory concentration (IC50) in data set [3] came out at 26 µM; in data set [6], 17 µM; in data set [4] it was 3.4 µM.

Regarding `Cc1c(NS(C)(=O)=O)ccc2c1C(=O)N(Cc1ccccc1-c1ccccc1)C2C(=O)NC(C)(C)C` (racemic), the microsomal CLint in data set [1] was 88 µL/min/mg. Besides, the logD in data set [2] worked out at 4.3. Moreover, the 50% inhibitory concentration (IC50) is above 33 µM in data set [3], 31 µM in data set [6] and 4.5 µM in data set [4].

In the case of `COc1ccc2c(c1C)C(=O)N(Cc1ccccc1-c1ccccc1)C2C(=O)NC(C)(C)C` (racemic), in data set [1], the microsomal CLint was above 100 µL/min/mg. Besides, the logD in data set [2] was determined as 5.6. Further, 0.8 µM corresponded to half-maximal inhibition in data set [4] (IC50).

For `CCCCNC(=O)C1c2ccccc2C(=O)N1CC(C)(O)c1ccc(Cl)cc1` (stereo unspecified), in data set [1], the microsomal CLint worked out at 64 µL/min/mg. Also, the logD in data set [2] came to 3.5. The IC50 in data set [4] worked out at 1.2 µM.

Regarding `CC(c1ccccc1)N1C(=O)c2ccccc2C1C(=O)NCc1ccccc1` (racemic), in data set [1], the microsomal CLint is above 100 µL/min/mg. Besides, in data set [2], the logD was determined as 3.5. In data set [3], this compound yielded an IC50 above 33 µM.

For the compound `CC(CN1C(=O)c2ccccc2C1C(=O)NCC(F)F)c1ccc(Cl)cc1` (racemic), the microsomal CLint in data set [1] amounted to 73 µL/min/mg. In addition, in data set [2], the logD worked out at 3.7. The same compound registered an IC50 in data set [4] of 1.2 µM.

The compound `CC(C)(C)NC(=O)C1c2ccccc2C(=O)N1Cc1ccccc1-c1ccccc1` (single isomer, unassigned; enantiomer 1) returned an IC50 in data set [3] above 33 µM.

For `CC(C)(C)NC(=O)C1c2c(O)cccc2C(=O)N1Cc1ccccc1-c1ccccc1` (racemic), the microsomal CLint in data set [1] was above 100 µL/min/mg. For the same compound, in data set [2], the logD came to 4.6. The figures for the IC50 in data set [3] and in data set [4] were 28 µM and 2.1 µM, respectively.

Regarding `CC(C)(C)NC(=O)C1c2ccccc2C(=O)N1Cc1ccccc1-c1ccc(F)cc1` (stereo unspecified), the microsomal CLint in data set [1] was found to be 53 µL/min/mg. In addition, the log distribution coefficient (logD) in data set [2] turned out to be 4.8. For the same compound, the IC50 came out at 56 µM in data set [3] and 6 µM in data set [4].

For `CC(C)(CN1C(=O)c2ccccc2C1C(=O)NCC(F)F)c1ccc(F)cc1` (stereo unspecified), the microsomal CLint in data set [1] is below 12 µL/min/mg. Further, the Activity in data set [7] was 1.6 µM. The log distribution coefficient (logD) in data set [2] worked out at 3.7. In addition, in data set [4], the IC50 is 1.2 µM.

Turning to `CC(C)(C)NC(=O)C1c2ccc(NS(C)(=O)=O)cc2C(=O)N1Cc1ccccc1-c1ccccc1` (racemic), in data set [1], the microsomal CLint turned out to be 59 µL/min/mg. Also, in data set [2], the logD turned out to be 4. For the same compound, the IC50 in data set [3] amounted to 15 µM; in data set [6], 17 µM; in data set [4] it was 7.6 µM.

On to `CC(C)(C)NC(=O)C1c2ccccc2C(=O)N1Cc1cc(F)ccc1-c1ccccc1` (single isomer, unassigned; enantiomer 1), for which, in data set [1], the microsomal CLint was 102 µL/min/mg. Further, the Activity in data set [7] stood at 0.079 µM. The logD in data set [2] is 5.2. The IC50 is above 33 µM in data set [3] and 1.4 µM in data set [4].

For `CC(C)(C)NC(=O)C1c2ccccc2C(=O)N1Cc1ccccc1-c1ccccc1` (racemic), the microsomal CLint in data set [1] was above 100 µL/min/mg. The logD in data set [2] came to 4.7. The same compound came in with an IC50 in data set [3] of 62 µM.

In the case of `CCCCNC(=O)C1c2ccccc2C(=O)N1CC(C)c1ccc(Cl)cc1` (racemic), in data set [1], the microsomal CLint was above 100 µL/min/mg. In data set [2], the logD stood at 4.5. For the same compound, the IC50 in data set [3] was 32 µM; in data set [6], 0.7 µM; in data set [4], 1.1 µM.

With `CC(C)(C)NC(=O)C1c2ccccc2C(=O)N1Cc1ccc(F)cc1-c1ccc(F)cc1` (stereo unspecified), the microsomal CLint in data set [1] is 34 µL/min/mg. Moreover, the Activity in data set [7] amounted to 0.9 µM. Further, the logD in data set [2] turned out to be 5. Also, the half-inhibitory concentration (IC50) in data set [3] was above 33 µM; in data set [4], 1.4 µM.

For the compound `Cc1c(OS(C)(=O)=O)ccc2c1C(=O)N(Cc1ccccc1-c1ccccc1)C2C(=O)NC(C)(C)C` (racemic), the microsomal CLint in data set [1] was above 100 µL/min/mg. Further, the logD in data set [2] came to 5.1. Also, the results for the IC50 in data set [3] and in data set [6] were above 32 µM and 10.5 µM, respectively.

On to `CCCCNC(=O)C1c2ccccc2C(=O)N1CC(C)c1ccc(F)cc1` (racemic), for which the microsomal CLint in data set [1] was 180 µL/min/mg. For the same compound, the logD in data set [2] turned out to be 4.1. Besides, in data set [4], inhibition was half-maximal at 0.9 µM (IC50).

On to `CC(c1ccccc1)N1C(=O)c2ccccc2C1C(=O)NC(C)(C)CO` (racemic), for which the microsomal CLint in data set [1] was 34 µL/min/mg. The values for the IC50 in data set [3], in data set [6] and in data set [4] were above 33 µM, above 32 µM and above 10 µM, respectively.

In the case of `CC(C)(C)NC(=O)C1c2ccc(O)cc2C(=O)N1Cc1ccccc1-c1ccccc1` (racemic), in data set [1], the microsomal CLint is above 100 µL/min/mg. In data set [2], the logD amounted to 4. Moreover, the IC50 in data set [3] was determined as 45 µM; in data set [6], 8.4 µM; in data set [4] it was 6.9 µM.

Take `CC(C)(CN1C(=O)c2ccccc2C1C(=O)NCCCF)c1ccc(Cl)cc1` (single isomer, unassigned; enantiomer 2): the CLH in data set [5] turned out to be 19 µL/min/mg. The IC50 in data set [4] was determined as 1 µM.

Take `CC(C)(C)NC(=O)C1c2ccccc2C(=O)N1Cc1ccc(F)cc1-c1ccccc1` (single isomer, unassigned; enantiomer 1): the microsomal CLint in data set [1] came out at 58 µL/min/mg. The Activity in data set [7] came to 0.054 µM. In addition, the log distribution coefficient (logD) in data set [2] stood at 5.2. Moreover, the IC50 was above 33 µM in data set [3] and 0.8 µM in data set [4].

As for `CC(C)(C)NC(=O)C1c2ccccc2C(=O)N1Cc1cc(F)ccc1-c1ccccc1` (single isomer, unassigned; enantiomer 2), the CLH in data set [5] came out at 96 µL/min/mg. In addition, the figures for the IC50 in data set [3] and in data set [4] were above 33 µM and 1.6 µM, respectively.

As to `CC(C)(C)NC(=O)C1c2ccc(C#N)cc2C(=O)N1Cc1ccccc1-c1ccccc1` (racemic), the microsomal CLint in data set [1] was above 100 µL/min/mg. In addition, in data set [2], the logD came to 4.7. The same compound gave a half-maximal inhibitory concentration (IC50) in data set [6] of 37 µM.

For `CC(C)(C)NC(=O)C1c2ccccc2C(=O)N1Cc1ccccc1-c1ccccc1` (single isomer, unassigned; enantiomer 2), the IC50 in data set [3] was above 33 µM.

Regarding `Cc1c(OC(F)F)ccc2c1C(=O)N(Cc1ccccc1-c1ccccc1)C2C(=O)NC(C)(C)C` (racemic), the microsomal CLint in data set [1] is above 100 µL/min/mg. The logD in data set [2] was determined as 5.9. In addition, the IC50 in data set [3] amounted to 22 µM; in data set [6], 1.2 µM.

`Cc1c(OCF)ccc2c1C(=O)N(Cc1ccccc1-c1ccccc1)C2C(=O)NC(C)(C)C` (racemic): the microsomal CLint in data set [1] was above 100 µL/min/mg. Also, in data set [2], the logD was 5.6. Also, the IC50 in data set [4] is 1.3 µM.

Take `CC(C)(C)NC(=O)C1c2cc(Cl)ccc2C(=O)N1C(c1cccnc1)c1cccnc1` (racemic): the microsomal CLint in data set [1] stood at 62 µL/min/mg. Further, the IC50 in data set [6] is above 32 µM.

In the case of `Cc1c(O)ccc2c1C(=O)N(Cc1ccccc1-c1ccccc1)C2C(=O)NC(C)(C)C` (single isomer, unassigned), the CLH in data set [5] stood at 20 µL/min/mg. Also, the IC50 in data set [3] was above 32 µM; in data set [6] it was 1.1 µM; in data set [4], 1.3 µM.

For the compound `Cc1c(O)ccc2c1C(=O)N(Cc1ccccc1-c1ccc(F)c(F)c1)C2C(=O)NC(C)(C)C` (stereo unspecified), in data set [1], the microsomal CLint is below 12 µL/min/mg. Also, in data set [2], the logD amounted to 4.6. In data set [4], this compound gave an IC50 of 3.5 µM.

For `COc1ccc2c(c1)C(=O)N(Cc1ccccc1-c1ccccc1)C2C(=O)NC(C)(C)C` (racemic), the microsomal CLint in data set [1] is above 100 µL/min/mg. Besides, the logD in data set [2] is 4.9. The values for the IC50 in data set [3] and in data set [6] were 30 µM and 11.3 µM, respectively.

On to `Cc1c(O)ccc2c1C(=O)N(Cc1ccccc1-c1ccccc1)C2C(=O)NC(C)(C)C` (racemic), for which, in data set [1], the microsomal CLint was below 12 µL/min/mg. In addition, the logD in data set [2] came out at 4.4. For the same compound, the IC50 came to 46 µM in data set [3], 3.2 µM in data set [6] and 2 µM in data set [4].

As for `COCCOCCNC(=O)C1c2cc(F)ccc2C(=O)N1CC(C)c1ccc(Cl)cc1` (racemic), the microsomal CLint in data set [1] is above 100 µL/min/mg. Moreover, the logD in data set [2] amounted to 3.6. For the same compound, the IC50 in data set [3] was above 33 µM; in data set [6], above 32 µM.

`O=C(NCc1ccncc1)C1c2ccccc2C(=O)N1Cc1ccccc1-c1ccccc1` (racemic): the microsomal CLint in data set [1] was above 100 µL/min/mg. For the same compound, the IC50 in data set [3] is above 33 µM; in data set [6] it was 13 µM.

For `CC(C)(C)NC(=O)C1c2ccccc2C(=O)N1Cc1cc(F)ccc1-c1ccc(F)cc1` (single isomer, unassigned; enantiomer 1), the microsomal CLint in data set [1] amounted to 49 µL/min/mg. Moreover, the Activity in data set [7] is 0.055 µM. Moreover, the logD in data set [2] is 5.3. Also, the IC50 is above 33 µM in data set [3] and 2 µM in data set [4].

For `CC(C)(C)NC(=O)C1c2ccccc2C(=O)N1Cc1ccc(F)cc1-c1ccccc1` (single isomer, unassigned), the CLH in data set [5] was 62 µL/min/mg. For the same compound, the IC50 in data set [3] is above 32 µM; in data set [4], 1.7 µM.

Take `CC(C)(C)NC(=O)C1c2ccccc2C(=O)N1Cc1ccccc1-c1ccc(F)c(F)c1` (single isomer, unassigned; enantiomer 2): the CLH in data set [5] was determined as 103 µL/min/mg. For the same compound, the IC50 in data set [3] is above 31 µM; in data set [4], 1.1 µM.

Turning to `CC(C)(CN1C(=O)c2ccccc2C1C(=O)NCCCC(F)F)c1ccc(F)cc1` (stereo unspecified), the microsomal CLint in data set [1] stood at 23 µL/min/mg. Besides, the log distribution coefficient (logD) in data set [2] is 4.1. Further, in data set [4], 0.6 µM corresponded to half-maximal inhibition (IC50).

As to `Cc1c(O)ccc2c1C(=O)N(Cc1ccccc1-c1ccc(F)cc1)C2C(=O)NC(C)(C)C` (stereo unspecified), the microsomal CLint in data set [1] is below 12 µL/min/mg. In addition, the pH-dependent lipophilicity (logD) in data set [2] was determined as 4.5. Further, the IC50 in data set [3] was above 32 µM; in data set [4], 2.7 µM.

A word on the logD: it is lipophilicity at a set pH, counting ionised and neutral species. Broadly, the IC50 is the concentration that gives 50% inhibition. Read a high IC50 as a need for much substance.

(Values after ChEMBL document CHEMBL3784945, “Isoindolinone compounds active as Kv1.5 blockers identified using a multicomponent reaction approach” (Bioorg Med Chem Lett, 2016).)
